These results are taken from patent publication US8765728B2, “[1,5]-diazocin derivatives” (MelliTech, priority 2009, dated 2014).

The experiment concerns Min6 cell. Briefly: Insulin secretion response of beta cell line to formula I compounds (insulin ELISA). The experiment is classed as cell-based. Particulars: rank according to % increase versus control at most effective dose. As for the experimental part:
The secretory responses of beta cell lines to glucose were tested as described in Merglen et al. Endocrinology, (2004) 145(2):667-78.
Briefly, after incubation with compounds from formula I or control vehicle, cells were maintained for 2 hours in glucose-free culture medium. The cells were then washed twice and preincubated for 30 minutes at 37° C. in glucose-free Krebs-Ringer bicarbonate HEPES buffer (KRBH: 135 mM NaCl, 3.6 mM KCl, 5 mM NaHCO3, 0.5 mM NaH2PO4, 0.5 mM MgCl2, 1.5 mM CaCl2, and 10 mM HEPES, pH 7.4). BSA (0.1%) was added as an insulin carrier. Cells were subsequently washed with glucose-free KRBH and then incubated for 30 minutes at 37° C. in KRBH containing different concentrations of glucose. The reaction was stopped by placing the plates on ice; supernatants were collected to determine insulin secretion and cells were used for intracellular insulin content following acid-ethanol extraction. Insulin was measured by ELISA (Linco) according to the manufacturer's instructions.
For the compound `O=C(CN1CCC(=O)N(C2CC2)Cc2cc(F)ccc21)c1ccc(N2CCCC2)cc1` [Compound 56, 5-cyclopropyl-8-fluoro-1-(2-oxo-2-(4-(pyrrolidin-1-yl)phenyl)ethyl)-2,3,5,6-tetrahydrobenzo[b][1,5]diazocin-4(1H)-one], the “Insulin secretion (Min6 cell) Range 1 to 5” value (from here on “Insulin secretion”) is given as 2 (2: 110-120% of control).
Then `COc1ccccc1C(O)CN1CCC(=O)N(C2CC2)Cc2cc(F)ccc21` (stereo not drawn) [Compound 57, 5-cyclopropyl-8-fluoro-1-(2-hydroxy-2-(2-methoxyphenyl)ethyl)-2,3,5,6-tetrahydrobenzo[b][1,5]diazocin-4(1H)-one], with 2 (2: 110-120% of control).
As to `COc1cccc(C(O)CN2CCC(=O)N(C3CC3)Cc3cc(F)ccc32)c1` (stereo not drawn) [Compound 58, 5-cyclopropyl-8-fluoro-1-(2-hydroxy-2-(3-methoxyphenyl)ethyl)-2,3,5,6-tetrahydrobenzo[b][1,5]diazocin-4(1H)-one], the “Insulin secretion” value was 2 (2: 110-120% of control).
In the case of `COc1ccc(C(O)CN2CCC(=O)N(C3CC3)Cc3cc(F)ccc32)cc1` (stereo not drawn) [Compound 59, 5-cyclopropyl-8-fluoro-1-(2-hydroxy-2-(4-methoxyphenyl)ethyl)-2,3,5,6-tetrahydrobenzo[b][1,5]diazocin-4(1H)-one], the “Insulin secretion” value is recorded as 2 (2: 110-120% of control).
For the compound `O=C1CCN(CC(O)c2ccc3c(c2)OCCO3)c2ccc(F)cc2CN1C1CC1` (stereo not drawn) [Compound 60, 5-cyclopropyl-1-(2-(2,3-dihydrobenzo[b][1,4]dioxin-6-yl)-2-hydroxyethyl)-8-fluoro-2,3,5,6-tetrahydrobenzo[b][1,5]diazocin-4(1H)-one], the “Insulin secretion” value is 2 (2: 110-120% of control).
Under `O=C1CCN(CC(O)c2ccccc2)c2ccc(F)cc2CN1C1CC1` (stereo not drawn) [Compound 61, 5-cyclopropyl-8-fluoro-1-(2-hydroxy-2-phenylethyl)-2,3,5,6-tetrahydrobenzo[b][1,5]diazocin-4(1H)-one] stands 3 (3: 120-140% of control); under `O=C1CCNc2cnccc2CN1C1CC1` [Compound 62, 5-cyclopropyl-2,3,5,6-tetrahydropyrido[3,4-b][1,5]diazocin-4(1H)-one], 2 (2: 110-120% of control); under `C=CCOc1c(OC)ccc2c1CN(C1CCCC1)C(=O)CCN2CC(=O)O` [Compound 63, 2-(7-(allyloxy)-5-cyclopentyl-8-methoxy-4-oxo-3,4,5,6-tetrahydrobenzo[b][1,5]diazocin-1(2H)-yl)acetic acid], 1 (1: 90-110% of control).
With `O=C1CCN(CC(O)c2ccc(N3CCCC3)cc2)c2ccc(F)cc2CN1C1CC1` (stereo not drawn) [Compound 64, 5-cyclopropyl-8-fluoro-1-(2-hydroxy-2-(4-(pyrrolidin-1-yl)phenyl)ethyl)-2,3,5,6-tetrahydrobenzo[b][1,5]diazocin-4(1H)-one], the “Insulin secretion” value was 5 (5: >170% of control).
Under `O=C1CCN(CC(O)COc2ccc(F)cc2)c2ccc(F)cc2CN1C1CC1` (stereo not drawn) [Compound 65, 5-cyclopropyl-8-fluoro-1-(3-(4-fluorophenoxy)-2-hydroxypropyl)-2,3,5,6-tetrahydrobenzo[b][1,5]diazocin-4(1H)-one] stands 3 (3: 120-140% of control); under `O=C1CCN(C[C@H](O)COCc2ccccc2)c2ccc(F)cc2CN1C1CC1` [Compound 66, (S)-1-(3-(benzyloxy)-2-hydroxypropyl)-5-cyclopropyl-8-fluoro-2,3,5,6-tetrahydrobenzo[b][1,5]diazocin-4(1H)-one], 1 (1: 90-110% of control); under `COc1ccc2c(c1)CN(C1CC1)C(=O)CCN2C[C@H](O)COCc1ccccc1` [Compound 67, (S)-1-(3-(benzyloxy)-2-hydroxypropyl)-5-cyclopropyl-8-methoxy-2,3,5,6-tetrahydrobenzo[b][1,5]diazocin-4(1H)-one], 3 (3: 120-140% of control).
Regarding `COc1ccc2c(c1)CN(C1CC1)C(=O)CCN2C[C@@H](O)CO` [Compound 68, (R)-5-cyclopropyl-1-(2,3-dihydroxypropyl)-8-methoxy-2,3,5,6-tetrahydrobenzo[b][1,5]diazocin-4(1H)-one], the “Insulin secretion” value is recorded as 3 (3: 120-140% of control).
`O=C(c1ccc(F)cc1)N1CCC(=O)N(C2CC2)Cc2cc(F)ccc21` [Compound 69, 5-cyclopropyl-8-fluoro-1-(4-fluorobenzoyl)-2,3,5,6-tetrahydrobenzo[b][1,5]diazocin-4(1H)-one]: the “Insulin secretion” value is 1 (1: 90-110% of control).
Consider `O=C(c1cccnc1)N1CCC(=O)N(C2CC2)Cc2cc(F)ccc21` [Compound 70, 5-cyclopropyl-8-fluoro-1-nicotinoyl-2,3,5,6-tetrahydrobenzo[b][1,5]diazocin-4(1H)-one], for which the “Insulin secretion” value is recorded as 1 (1: 90-110% of control).
Under `O=C(Cc1ccc(F)cc1)N1CCC(=O)N(C2CC2)Cc2cc(F)ccc21` [Compound 71, 5-cyclopropyl-8-fluoro-1-(2-(4-fluorophenyl)acetyl)-2,3,5,6-tetrahydrobenzo[b][1,5]diazocin-4(1H)-one] stands 4 (4: 140-170% of control); under `O=C1CCN(Cc2ccccc2)c2ccc(F)cc2CN1C1CC1` [Compound 72, 1-benzyl-5-cyclopropyl-8-fluoro-2,3,5,6-tetrahydrobenzo[b][1,5]diazocin-4(1H)-one], 3 (3: 120-140% of control).
Then `O=C1CCN(CCc2ccccc2)c2ccc(F)cc2CN1C1CC1` [Compound 73, 5-cyclopropyl-8-fluoro-1-phenethyl-2,3,5,6-tetrahydrobenzo[b][1,5]diazocin-4(1H)-one], with 4 (4: 140-170% of control); and `O=C1CCN(CCCc2ccccc2)c2ccc(F)cc2CN1C1CC1` [Compound 74, 5-cyclopropyl-8-fluoro-1-(3-phenylpropyl)-2,3,5,6-tetrahydrobenzo[b][1,5]diazocin-4(1H)-one], with 4 (4: 140-170% of control).
Under `O=C(c1ccc(F)cc1)N1CCC(=O)N(C2CC2)Cc2cccnc21` [Compound 75, 5-cyclopropyl-1-(4-fluorobenzoyl)-2,3,5,6-tetrahydropyrido[2,3-b][1,5]diazocin-4(1H)-one] stands 4 (4: 140-170% of control).
As to `O=C(Cc1ccc(F)cc1)N1CCC(=O)N(C2CC2)Cc2cccnc21` [Compound 76, 5-cyclopropyl-1-(2-(4-fluorophenyl)acetyl)-2,3,5,6-tetrahydropyrido[2,3-b][1,5]diazocin-4(1H)-one], the “Insulin secretion” value was 5 (5: >170% of control).
For `O=C(c1cccnc1)N1CCC(=O)N(C2CC2)Cc2cccnc21` [Compound 77, 5-cyclopropyl-1-nicotinoyl-2,3,5,6-tetrahydropyrido[2,3-b][1,5]diazocin-4(1H)-one], the “Insulin secretion” value was 5 (5: >170% of control).
Then `O=C1CCNc2ccc(Cl)cc2CN1C1CC1` [Compound 78, 8-chloro-5-cyclopropyl-2,3,5,6-tetrahydrobenzo[b][1,5]diazocin-4(1H)-one], with 3 (3: 120-140% of control).
Under `O=C1CCN(C[C@@H](O)COCc2ccccc2)c2ccc(Cl)cc2CN1C1CC1` [Compound 79, (R)-1-(3-(benzyloxy)-2-hydroxypropyl)-8-chloro-5-cyclopropyl-2,3,5,6-tetrahydrobenzo[b][1,5]diazocin-4(1H)-one] stands 1 (1: 90-110% of control).
In the case of `O=C1CCNc2ccc3c(c2CN1C1CC1)OCCO3` [Compound 80, 11-cyclopropyl-2,3,8,9,11,12-hexahydro[1,4]dioxino[2,3-h][1,5]benzodiazocin-10(7H)-one], the “Insulin secretion” value is listed as 3 (3: 120-140% of control).
Consider `O=C1CCN(CC(O)COc2ccccc2)c2ccc(Cl)cc2CN1C1CC1` (stereo not drawn) [Compound 81, 8-chloro-5-cyclopropyl-1-(2-hydroxy-3-phenoxypropyl)-2,3,5,6-tetrahydrobenzo[b][1,5]diazocin-4(1H)-one], for which the “Insulin secretion” value is recorded as 1 (1: 90-110% of control).
Under `O=C(CN1CCC(=O)N(C2CC2)Cc2cc(Cl)ccc21)c1ccc(Cl)cc1` [Compound 82, 8-chloro-1-(2-(4-chlorophenyl)-2-oxoethyl)-5-cyclopropyl-2,3,5,6-tetrahydrobenzo[b][1,5]diazocin-4(1H)-one] stands 1 (1: 90-110% of control).
As for `O=C(CN1CCC(=O)N(C2CC2)Cc2cc(Cl)ccc21)c1cccc(F)c1` [Compound 83, 8-chloro-5-cyclopropyl-1-(2-(3-fluorophenyl)-2-oxoethyl)-2,3,5,6-tetrahydrobenzo[b][1,5]diazocin-4(1H)-one], the “Insulin secretion” value is listed as 1 (1: 90-110% of control).
Regarding `COc1ccc2c(c1)CN(C1CC1)C(=O)CCN2C(=O)c1ccno1` [Compound 84, 5-cyclopropyl-1-(isoxazole-5-carbonyl)-8-methoxy-2,3,5,6-tetrahydrobenzo[b][1,5]diazocin-4(1H)-one], the “Insulin secretion” value is 1 (1: 90-110% of control).
Then `O=C1CCN(CC(O)c2ccc(Cl)cc2)c2ccc(Cl)cc2CN1C1CC1` (stereo not drawn) [Compound 85, 8-chloro-1-(2-(4-chlorophenyl)-2-hydroxyethyl)-5-cyclopropyl-2,3,5,6-tetrahydrobenzo[b][1,5]diazocin-4(1H)-one], with 1 (1: 90-110% of control).
